Target: Replicase polyprotein 1ab (Severe acute respiratory syndrome coronavirus 2) (UniProt P0DTD1)
Description: Functional biochemical assay to identify treatments for viral infectious disease that targets SARS-COV-2 nsp3 macrodomain, whereby the mechanism of action displaces an ADP-Ribose modified peptide from the binding site. Utilizing a time-resolved fluorescence method to measure binding by reading the emitted fluorescence intensity in two wavelengths.

Compound: O=C1CC[C@H](COC(=O)c2ncnc3[nH]ccc23)CCN1
- inhibition (Concentration 50.0 uM, Number of replicates 2.0, Standard deviation 3.465 %): -7.87%

Compound: O=C(c1ncc[nH]1)N1CCC(c2ccn3ncc(C(=O)N4CCCCC4)c3c2)CC1
- inhibition (Concentration 49.75 uM, Number of replicates 2.0, Standard deviation 1.065 %): 18.5%
- inhibition (Concentration 99.5 uM, Number of replicates 2.0, Standard deviation 3.121 %): 37.2%

Compound: c1ccc(-c2nc(CNc3cccnc3)cs2)nc1
- inhibition (Concentration 50.0 uM, Number of replicates 2.0, Standard deviation 0.432 %): -9.87%

Compound: Cn1nc(NC(=O)c2cc(-c3ccco3)[nH]n2)c2nccnc21
- inhibition (Concentration 50.0 uM, Number of replicates 2.0, Standard deviation 0.879 %): -5.4%

Compound: O=C1C[C@H](CNC(=O)c2ccc(NC(=O)Nc3ccccc3)cc2)CCN1
- inhibition (Concentration 49.75 uM, Number of replicates 2.0, Standard deviation 1.043 %): 1.22%
- inhibition (Concentration 99.5 uM, Number of replicates 2.0, Standard deviation 0.12 %): 4.01%

Compound: Cn1ncnc1C(=O)N1CCC(c2ccn3ncc(C(=O)N4CCCCC4)c3c2)CC1
- inhibition (Concentration 49.75 uM, Number of replicates 2.0, Standard deviation 0.221 %): 2.38%
- inhibition (Concentration 99.5 uM, Number of replicates 2.0, Standard deviation 2.086 %): 20.4%

Compound: CC(C)[C@@H](Nc1ncnc2[nH]ccc12)c1nc2ccccc2[nH]1
- inhibition (Concentration 49.75 uM, Number of replicates 2.0, Standard deviation 3.253 %): 37.3%
- inhibition (Concentration 99.5 uM, Number of replicates 2.0, Standard deviation 1.702 %): 52.5%

Compound: O=C(c1cn2ncccc2n1)N1CCC(c2ccn3ncc(C(=O)N4CCCCC4)c3c2)CC1
- inhibition (Concentration 49.75 uM, Number of replicates 2.0, Standard deviation 0.525 %): 30.7%
- inhibition (Concentration 99.5 uM, Number of replicates 2.0, Standard deviation 6.296 %): 53.8%

Compound: CCn1cc(CNC(=O)c2ccc(NC(=O)Nc3ccccc3)cc2)cn1
- inhibition (Concentration 49.75 uM, Number of replicates 2.0, Standard deviation 1.767 %): -1.76%
- inhibition (Concentration 99.5 uM, Number of replicates 2.0, Standard deviation 3.239 %): 3.8%

Compound: NC(=O)c1ncccc1C(=O)N1CCC(c2ccn3ncc(C(=O)N4CCCCC4)c3c2)CC1
- inhibition (Concentration 49.75 uM, Number of replicates 2.0, Standard deviation 4.804 %): 20%
- inhibition (Concentration 99.5 uM, Number of replicates 2.0, Standard deviation 1.17 %): 36%

Compound: COCc1cc(CNc2nc3[nH]cnc3c(=O)[nH]2)on1
- inhibition (Concentration 50.0 uM, Number of replicates 2.0, Standard deviation 1.926 %): 2.98%

Compound: FC(F)(F)Oc1ccccc1-c1ncnc2[nH]ccc12
- inhibition (Concentration 50.0 uM, Number of replicates 2.0, Standard deviation 5.274 %): -3.37%
- inhibition (Concentration 100.0 uM, Number of replicates 2.0, Standard deviation 3.913 %): 2.12%

Compound: FC(F)(F)CO[C@@H]1CCCN(c2ncnc3[nH]ccc23)C1
- inhibition (Concentration 50.0 uM, Number of replicates 2.0, Standard deviation 28.677 %): 22.2%

Compound: CCN(Cc1nnc(C)o1)C(=O)c1cnn2ccc(C3CCN(C(=O)c4ccccc4)CC3)cc12
- inhibition (Concentration 49.75 uM, Number of replicates 2.0, Standard deviation 14.085 %): 10%
- inhibition (Concentration 99.5 uM, Number of replicates 2.0, Standard deviation 1.269 %): -5.31%

Compound: Cc1nn(C)c(C)c1[C@H]1COCCN1c1ncnc2[nH]ccc12
- inhibition (Concentration 49.75 uM, Number of replicates 2.0, Standard deviation 4.821 %): -0.137%
- inhibition (Concentration 99.5 uM, Number of replicates 2.0, Standard deviation 1.988 %): -0.128%

Compound: CC(C)[C@@H](CCN(C)C(=O)c1cc2c(s1)CC[C@H](C)C2)Nc1ncnc2[nH]ccc12
- inhibition (Concentration 49.75 uM, Number of replicates 2.0, Standard deviation 6.617 %): -9.68%

Compound: Fc1ccc(Oc2cc(CNc3ncnc4nc[nH]c34)ccn2)cc1
- inhibition (Concentration 50.0 uM, Number of replicates 2.0, Standard deviation 7.991 %): 2.01%

Compound: CN(CCOc1ccccc1)c1ncnc2[nH]ccc12
- inhibition (Concentration 50.0 uM, Number of replicates 2.0, Standard deviation 4.668 %): -2.26%

Compound: Nc1ncnc2c1ncn2Cc1cccc2ncnn12
- inhibition (Concentration 49.75 uM, Number of replicates 2.0, Standard deviation 0.496 %): -0.553%
- inhibition (Concentration 99.5 uM, Number of replicates 2.0, Standard deviation 1.809 %): -3.16%

Compound: O=C(NCc1nc(-c2ccco2)n[nH]1)c1cc(=O)n2ncnc2[nH]1
- inhibition (Concentration 50.0 uM, Number of replicates 2.0, Standard deviation 1.646 %): -2.6%

Compound: c1cc(-c2nnc(Sc3ncnc4[nH]ccc34)[nH]2)ccn1
- inhibition (Concentration 50.0 uM, Number of replicates 2.0, Standard deviation 4.573 %): 10.7%
- inhibition (Concentration 50.0 uM, Number of replicates 2.0, Standard deviation 8.715 %): 5.47%
- inhibition (Concentration 100.0 uM, Number of replicates 2.0, Standard deviation 31.914 %): 3.32%

Compound: Cc1cc(CNC(=O)c2cnn3ccc(C4CCN(C(=O)c5ccccc5)CC4)cc23)n(C)n1
- inhibition (Concentration 49.75 uM, Number of replicates 2.0, Standard deviation 3.014 %): -5.51%
- inhibition (Concentration 99.5 uM, Number of replicates 2.0, Standard deviation 0.205 %): -8.12%

Compound: Cn1nncc1C(=O)N(CCC(=O)N1CCNCC1)Cc1cccc(Cl)c1
- inhibition (Concentration 49.75 uM, Number of replicates 2.0, Standard deviation 1.263 %): 0.447%
- inhibition (Concentration 99.5 uM, Number of replicates 2.0, Standard deviation 1.735 %): -2.15%

Compound: c1cnc([C@@H]2CCN(c3ncnc4[nH]ccc34)C2)cn1
- inhibition (Concentration 50.0 uM, Number of replicates 2.0, Standard deviation 2.663 %): -1.7%

Compound: O=C(CCN(Cc1cccc(Cl)c1)C(=O)[C@H]1CCOC1)N1CCNCC1
- inhibition (Concentration 49.75 uM, Number of replicates 2.0, Standard deviation 12.724 %): 4.08%
- inhibition (Concentration 99.5 uM, Number of replicates 2.0, Standard deviation 2.436 %): -3.96%

Compound: O=C(NCc1nc(-c2ccco2)n[nH]1)c1cc2nccn2c(=O)[nH]1
- inhibition (Concentration 50.0 uM, Number of replicates 2.0, Standard deviation 0.515 %): -5.42%

Compound: O=C(Nc1cnc2[nH]ncc2c1)C1(c2ccccc2)CC1
- inhibition (Concentration 50.0 uM, Number of replicates 2.0, Standard deviation 8.824 %): 3.21%

Compound: CC(C)[C@@H](Nc1ncnc2[nH]ccc12)C(=O)N(C)Cc1nnc2n1CCC2
- inhibition (Concentration 49.75 uM, Number of replicates 2.0, Standard deviation 4.689 %): -8.89%
- inhibition (Concentration 99.5 uM, Number of replicates 2.0, Standard deviation 1.151 %): -6.14%

Compound: COCc1nc(CNc2c(C#N)c(C)nn2C)cs1
- inhibition (Concentration 50.0 uM, Number of replicates 2.0, Standard deviation 4.858 %): 0.8%

Compound: CC(C)(CCNc1ncnc2[nH]ccc12)S(C)(=O)=O
- inhibition (Concentration 50.0 uM, Number of replicates 2.0, Standard deviation 3.874 %): 0.75%

Compound: Cn1cc([C@H]2CSCCN2c2ncnc3[nH]ccc23)cn1
- inhibition (Concentration 49.75 uM, Number of replicates 2.0, Standard deviation 2.461 %): -6.49%
- inhibition (Concentration 99.5 uM, Number of replicates 2.0, Standard deviation 0.732 %): -3.46%

Compound: O=C(c1cncc(O)n1)N1CCC(c2ccn3ncc(C(=O)N4CCCCC4)c3c2)CC1
- inhibition (Concentration 49.75 uM, Number of replicates 2.0, Standard deviation 0.648 %): 26.6%
- inhibition (Concentration 99.5 uM, Number of replicates 2.0, Standard deviation 1.31 %): 41.9%

Compound: O=C(NCc1cn[nH]c1)c1cnn2ccc(C3CCN(C(=O)c4ccccc4)CC3)cc12
- inhibition (Concentration 49.75 uM, Number of replicates 2.0, Standard deviation 0.103 %): -2.37%
- inhibition (Concentration 99.5 uM, Number of replicates 2.0, Standard deviation 3.225 %): -4.5%

Compound: Cc1cnc(CCNc2ncnc3[nH]ncc23)c(C)c1
- inhibition (Concentration 50.0 uM, Number of replicates 2.0, Standard deviation 4.479 %): 4.34%

Compound: CC(C)NC(=O)[C@@H]1CCCN(c2ncnc3[nH]ccc23)C1
- inhibition (Concentration 50.0 uM, Number of replicates 2.0, Standard deviation 0.005 %): 1.78%

Compound: CN1CCC[C@@H]1CNC(=O)c1cnn2ccc(C3CCN(C(=O)c4ccccc4)CC3)cc12
- inhibition (Concentration 49.75 uM, Number of replicates 2.0, Standard deviation 1.011 %): -4.43%
- inhibition (Concentration 99.5 uM, Number of replicates 2.0, Standard deviation 3.797 %): 1.5%

Compound: C#Cc1cccc(NC(=O)CN(C)c2ncnc3[nH]ccc23)c1
- inhibition (Concentration 50.0 uM, Number of replicates 2.0, Standard deviation 4.462 %): 4.4%

Compound: CC(C)[C@@H](Nc1ncnc2[nH]ccc12)c1nncn1C
- inhibition (Concentration 49.75 uM, Number of replicates 2.0, Standard deviation 0.565 %): 4.59%
- inhibition (Concentration 99.5 uM, Number of replicates 2.0, Standard deviation 7.858 %): 10.8%

Compound: CN(c1ncnc2[nH]ncc12)[C@@H](CCO)c1ccccc1
- inhibition (Concentration 49.75 uM, Number of replicates 2.0, Standard deviation 10.225 %): 8.86%
- inhibition (Concentration 99.5 uM, Number of replicates 2.0, Standard deviation 3.705 %): 5.14%

Compound: c1nc(NCc2cnc3sccn23)c2[nH]cnc2n1
- inhibition (Concentration 50.0 uM, Number of replicates 2.0, Standard deviation 7.011 %): -4.78%
- inhibition (Concentration 100.0 uM, Number of replicates 2.0, Standard deviation 4.457 %): 5.65%

Compound: CS(=O)(=O)N1CC[C@@H](COC(=O)c2ncnc3[nH]ccc23)C1
- inhibition (Concentration 50.0 uM, Number of replicates 2.0, Standard deviation 2.196 %): 0.187%

Compound: Cc1cccc(Cl)c1S(=O)(=O)Nc1cnc2[nH]ncc2c1
- inhibition (Concentration 50.0 uM, Number of replicates 2.0, Standard deviation 1.912 %): -0.254%

Compound: COc1cc(CC(=O)Nc2cc3c(=O)nc[nH]c3cn2)on1
- inhibition (Concentration 49.75 uM, Number of replicates 2.0, Standard deviation 0.449 %): -4.69%
- inhibition (Concentration 99.5 uM, Number of replicates 2.0, Standard deviation 2.956 %): -3.48%

Compound: O=C(Cc1ccon1)Nc1ncnc2[nH]cnc12
- inhibition (Concentration 50.0 uM, Number of replicates 2.0, Standard deviation 0.023 %): -1.61%

Compound: C[C@]1(C(=O)O)CCCN1C(=O)c1ncnc2[nH]ccc12
- inhibition (Concentration 50.0 uM, Number of replicates 2.0, Standard deviation 5.501 %): -5.29%
- inhibition (Concentration 100.0 uM, Number of replicates 2.0, Standard deviation 0.477 %): 5.67%

Compound: O[C@H]1C[C@](CNc2ncnc3[nH]ccc23)(c2ccccc2)C1
- inhibition (Concentration 50.0 uM, Number of replicates 2.0, Standard deviation 6.633 %): 11.4%

Compound: Cc1[nH]ncc1CN(C)C(=O)c1cnn2ccc(C3CCN(C(=O)c4ccccc4)CC3)cc12
- inhibition (Concentration 49.75 uM, Number of replicates 2.0, Standard deviation 5.917 %): -1.14%
- inhibition (Concentration 99.5 uM, Number of replicates 2.0, Standard deviation 7.587 %): 0.307%

Compound: COc1ccccc1C[C@@H](Nc1ncnc2[nH]ccc12)C(C)C
- inhibition (Concentration 49.75 uM, Number of replicates 2.0, Standard deviation 1.888 %): 31.7%
- inhibition (Concentration 99.5 uM, Number of replicates 2.0, Standard deviation 1.108 %): 48.5%

Compound: CCN(Cc1cccnc1)C(=O)c1ccc(NC(=O)Nc2ccccc2)cc1
- inhibition (Concentration 49.75 uM, Number of replicates 2.0, Standard deviation 4.414 %): 3.63%
- inhibition (Concentration 99.5 uM, Number of replicates 2.0, Standard deviation 0.745 %): -7.09%

Compound: COc1cccc(Cl)c1CNc1ncnc2[nH]ncc12
- inhibition (Concentration 50.0 uM, Number of replicates 2.0, Standard deviation 0.519 %): -1.83%

Compound: COc1ccccc1CN(C[C@@H]1CCCO1)c1ncnc2[nH]ccc12
- inhibition (Concentration 50.0 uM, Number of replicates 2.0, Standard deviation 1.448 %): 4.74%

Compound: COCc1nc(CNc2ncc3c(n2)COC3)cs1
- inhibition (Concentration 50.0 uM, Number of replicates 2.0, Standard deviation 8.324 %): -7.14%

Source: ChEMBL document CHEMBL5442379, “ASAP - SARS-CoV-2 nsp3 macrodomain single point” (2024)
